Series [1] concerns the target T1, human LBAT (Homo sapiens, UniProt Q14973).
T1 construct: expressed in transfected cells; kept under Geneticin selection
T1 sequence (Q14973 1-349): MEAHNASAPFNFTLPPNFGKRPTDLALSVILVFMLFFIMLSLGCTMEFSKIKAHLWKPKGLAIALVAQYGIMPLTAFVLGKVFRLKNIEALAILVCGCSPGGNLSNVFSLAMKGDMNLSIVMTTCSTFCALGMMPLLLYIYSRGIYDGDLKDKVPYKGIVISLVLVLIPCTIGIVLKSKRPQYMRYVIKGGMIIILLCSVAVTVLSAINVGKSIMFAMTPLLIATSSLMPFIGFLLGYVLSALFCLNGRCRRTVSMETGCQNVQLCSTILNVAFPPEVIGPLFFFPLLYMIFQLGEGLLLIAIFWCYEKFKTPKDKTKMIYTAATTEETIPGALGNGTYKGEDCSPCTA
In words: LBAT (h/m) assay: 3H-taurocholic acid uptake in human LBAT-overexpressing cells. The class given is cell-based. The settings on record: 0.3 μM 3H-taurocholic acid and 7.5 μM cold taurocholic acid, 20 minutes, read-out: hLBAT IC50. On the procedure:
LBAT (h/m) Assay Protocol
20,000 cells (Human or Mouse LBAT-overexpressing cells) were seeded in 96-wells plate (Corning CLS3809) in 100 μL MEM-alpha medium (Gibco 12571-063) supplemented with 10% FBS (Gibco 10438026) containing Geneticin (Gibco 10131-027) (1 mg/mL) and incubated at 37° C. in 5% CO2 for 24 hours. After incubation, media was decanted from the wells and cells were washed two times with 300 μL of basal MEM-alpha medium (FBS-free). After decanting basal MEM-alpha medium each time, plates were tapped against paper towel to ensure maximum removal of residual media. For human LBAT, incubation mix was prepared by adding test inhibitor dilutions (3-fold serial dilution in DMSO (Sigma D2650), 10 points) in MEM-alpha (without FBS) containing 0.3 μM 3H-taurocholic acid (ARC ART-1368) and 7.5 μM cold taurocholic acid (Sigma T4009) (maintaining 0.2% final DMSO concentration). For mouse LBAT, incubation mix was prepared by adding test inhibitor dilutions (3-fold serial dilution in DMSO, 10 points) in MEM-alpha (without FBS) containing 0.3 μM 3H-taurocholic acid and 25 μM cold taurocholic acid maintaining 0.2% final DMSO concentration). 50 μL of incubation mix containing test inhibitors was then added to the wells (in duplicate) and the plates were incubated for 20 minutes in a CO2 incubator at 37° C. After incubation, the reaction was stopped by keeping the plates on ice water mix for 2-3 minutes and then the incubation mix was aspirated completely from the wells. The wells were washed two times with 250 μL of chilled unlabelled 1 mM taurocholic acid dissolved in HEPES (Gibco 15630080)-buffered (10 mM) HBSS (Gibco 14175079) (pH 7.4). The plates were tapped against a paper towel after every wash to ensure maximum removal of blocking buffer.
100 μL of MicroScint-20 (PerkinElmer 6013621) was added to the wells and kept overnight at room temperature before reading the plates in TopCount NXT™ Microplate Scintillation and Luminescence Counter from PerkinElmer under 3H Test protocol (set at 120 seconds reading time per well, with normal plate orientation).
(§1) Preparation of Test Compound Dilutions
(§2) All test compounds were provided in powder form at room temperature. 10 mM DMSO stocks of the test compounds were prepared, aliquoted and stored at −20° C. From the 10 mM DMSO stock of the compounds, a 3-fold serial dilution in DMSO was prepared to get a total of 10 dilutions of the test compounds. 0.5 μL of this dilution in DMSO was added to 250 μL of FBS-free basal media containing 3H-taurocholic acid and cold taurocholic acid to prepare the incubation mixture.

Series [2] is described as follows: Bidirectional permeability assay (Caco-2 cells). The settings on record: human, FaSSIF donor buffer, 120 minutes at 37° C.; for Papp A→B at 120 min, 10 µM: Caco-2, pH 7.4, absorptive direction (A2B); for Papp B→A at 120 min, 10 µM: Caco-2, pH 7.4, secretory direction (B2A). The class given is in vitro ADME. The text has this:
Bidirectional Permeability Assay (Caco-2 Cells)
HepaRG-Based Assay Protocol
(Caco-2 monolayers are a common model of the intestinal barrier.)

Series [3] concerns the target T2, human IBAT (Homo sapiens, UniProt Q12908).
T2 construct: expressed in transfected cells; kept under Puromycin selection
T2 sequence (Q12908 1-348): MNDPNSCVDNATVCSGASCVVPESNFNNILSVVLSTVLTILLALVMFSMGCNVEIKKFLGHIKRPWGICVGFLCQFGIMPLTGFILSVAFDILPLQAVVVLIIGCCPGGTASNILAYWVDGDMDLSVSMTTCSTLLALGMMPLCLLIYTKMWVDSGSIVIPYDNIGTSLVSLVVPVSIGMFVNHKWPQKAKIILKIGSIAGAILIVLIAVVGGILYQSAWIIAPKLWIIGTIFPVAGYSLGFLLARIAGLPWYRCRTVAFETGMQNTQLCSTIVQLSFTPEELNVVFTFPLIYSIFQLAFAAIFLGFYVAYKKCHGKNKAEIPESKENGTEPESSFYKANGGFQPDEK
In words: IBAT (h/m) assay: 3H-taurocholic acid uptake in human IBAT-overexpressing cells. The format is cell-based. The settings on record: 0.25 μM 3H-taurocholic acid and 5 μM cold taurocholic acid, 20 minutes, highest test concentration 10 μM, read-out: hIBAT IC50. On the procedure:
IBAT (h/m) Assay Protocol
10,000 cells (Human or Mouse IBAT-overexpressing cells) were seeded in 96-wells plate (Corning CLS3809) in 200 μL MEM-alpha medium (Gibco 12571-063) supplemented with 10% FBS (Gibco 10438026) containing Puromycin (Gibco A1113803) (10 μg/mL) and incubated at 37° C. in 5% CO2 for 48 hours. After incubation, media was decanted from the wells and cells were washed two times with 300 μL of basal MEM-alpha medium (FBS-free). After decanting basal MEM-alpha medium each time, plates were tapped against paper towel to ensure maximum removal of residual media. Test inhibitor dilutions (highest test concentration being 10 μM, 3-fold serial dilution, 10 points) prepared in DMSO (Sigma D2650) were added in incubation mix (maintaining 0.2% final DMSO concentration) containing 0.25 μM 3H-taurocholic acid (ARC ART-1368) and 5 μM of cold taurocholic acid (Sigma T4009). 50 μL of incubation mix containing test inhibitors was then added to the wells (in duplicate) and the plates were incubated for 20 minutes in a CO2 incubator at 37° C. After incubation, the reaction was stopped by keeping the plates on ice water mix for 2-3 minutes and then the incubation mix was aspirated completely from the wells. The wells were washed two times with 250 μL of chilled unlabelled 1 mM taurocholic acid dissolved in HEPES (Gibco 15630080)-buffered (10 mM) HBSS (Gibco 14175079) (pH 7.4). The plates were tapped against a paper towel after every wash to ensure maximum removal of blocking buffer.
100 μL of MicroScint-20 (PerkinElmer 6013621) was added to the wells and kept overnight at room temperature before reading the plates in TopCount NXT™ Microplate Scintillation and Luminescence Counter from PerkinElmer under 3H Test protocol (set at 120 seconds reading time per well).
as §1, §2

The values that follow come from US11572350B1, “Benzothia(di)azepine compounds and their use as bile acid modulators” (Albireo AB, priority 2020, dated 2023).

On to `CCCCC1CN(c2ccc(F)cc2)c2cc(SCC)c(O/C=C/C(=O)O)cc2S(=O)(=O)C1` (single isomer, unassigned) [Example 9, (E)-3-((3-butyl-7-(ethylthio)-5-(4-fluorophenyl)-1,1-dioxido-2,3,4,5-tetrahydro-1,5-benzothiazepin-8-yl)oxy)acrylic acid], for which, in series [1], the half-maximal inhibitory concentration (IC50) was found to be 2 nM. For the same molecule, in series [2], the apical-to-basolateral permeability (Papp A→B) at 120 min, 10 µM came out at 15.5 ×10⁻⁶ cm/s and the Papp B→A at 120 min, 10 µM is 18.6 ×10⁻⁶ cm/s.
`CCCCC1CN(c2ccc(F)cc2)c2cc(SC)c(O/C=C(\F)C(=O)O)cc2S(=O)(=O)N1C` (single isomer, unassigned) [Example 20, (Z)-3-((3-butyl-5-(4-fluorophenyl)-2-methyl-7-(methylthio)-1,1-dioxido-2,3,4,5-tetrahydro-1,2,5-benzothiadiazepin-8-yl)oxy)-2-fluoroacrylic acid]: the 50% inhibitory concentration (IC50) in series [1] was 0.8 nM. Further, in series [3], the IC50 came out at 135 nM. In series [2], the Papp A→B at 120 min, 10 µM worked out at 2.7 ×10⁻⁶ cm/s and the Papp B→A at 120 min, 10 µM came to 10.5 ×10⁻⁶ cm/s.
In the case of `CCCCC1CN(c2ccc(F)cc2)c2cc(SC)c(O/C=C(\F)C(=O)O)cc2S(=O)(=O)C1` (racemic) [Example 10, (Z)-3-((3-butyl-5-(4-fluorophenyl)-7-(methylthio)-1,1-dioxido-2,3,4,5-tetrahydro-1,5-benzothiazepin-8-yl)oxy)-2-fluoroacrylic acid], the half-inhibitory concentration (IC50) in series [1] is 1.6 nM. The IC50 in series [3] stood at 827 nM. In addition, in series [2], the Papp A→B at 120 min, 10 µM is 2.9 ×10⁻⁶ cm/s and the Papp B→A at 120 min, 10 µM came out at 8.5 ×10⁻⁶ cm/s.
`CCCCC1CN(c2ccc(F)cc2)c2cc(SC)c(O/C=C(\F)C(=O)O)cc2S(=O)(=O)N1C` (racemic) [Example 19, (Z)-3-((3-butyl-5-(4-fluorophenyl)-2-methyl-7-(methylthio)-1,1-dioxido-2,3,4,5-tetrahydro-1,2,5-benzothiadiazepin-8-yl)oxy)-2-fluoroacrylic acid]: the half-inhibitory concentration (IC50) in series [1] is 1.9 nM. The concentration for half-maximal inhibition (IC50) in series [3] is 248 nM. For the same molecule, in series [2], the Papp A→B at 120 min, 10 µM was 4.3 ×10⁻⁶ cm/s and the Papp B→A at 120 min, 10 µM is 6.1 ×10⁻⁶ cm/s.
On to `CCCCC1CN(c2ccc(F)cc2)c2cc(SCC)c(O/C=C/C(=O)O)cc2S(=O)(=O)N1` (racemic) [Example 30, (E)-3-((3-butyl-7-(ethylthio)-5-(4-fluorophenyl)-1,1-dioxido-2,3,4,5-tetrahydro-1,2,5-benzothiadiazepin-8-yl)oxy)acrylic acid], for which the IC50 in series [1] was found to be 2.6 nM. In series [3], the IC50 amounted to 4100 nM. Moreover, in series [2], the Papp A→B at 120 min, 10 µM came out at 6.5 ×10⁻⁶ cm/s and the apparent permeability from basolateral to apical (Papp B→A) at 120 min, 10 µM came to 8.7 ×10⁻⁶ cm/s.
The corresponding values for `CCCCC1CN(c2ccc(F)cc2)c2cc(SC)c(O/C=C/C(=O)O)cc2S(=O)(=O)N1` (racemic) [Example 1, (E)-3-((3-Butyl-5-(4-fluorophenyl)-7-(methylthio)-1,1-dioxido-2,3,4,5-tetrahydro-1,2,5-benzothiadiazepin-8-yl)oxy)acrylic acid] are 1 nM, 1670 nM, 7.3 ×10⁻⁶ cm/s and 17.2 ×10⁻⁶ cm/s.
For the molecule `CCCCC1CN(c2ccc(F)cc2)c2cc(SCC)c(O/C=C(\F)C(=O)O)cc2S(=O)(=O)C1` (single isomer, unassigned) [Example 18, (Z)-3-((3-butyl-7-(ethylthio)-5-(4-fluorophenyl)-1,1-dioxido-2,3,4,5-tetrahydro-1,5-benzothiazepin-8-yl)oxy)-2-fluoroacrylic acid], the concentration for half-maximal inhibition (IC50) in series [1] was 2.6 nM; in series [3] it was 647 nM. The Papp A→B at 120 min, 10 µM in series [2] was determined as 1.1 ×10⁻⁶ cm/s. In addition, in series [2], the basolateral-to-apical permeability (Papp B→A) at 120 min, 10 µM amounted to 3.1 ×10⁻⁶ cm/s.
The corresponding values for `CCCCC1CN(c2ccc(F)cc2)c2cc(SCC)c(O/C=C(\F)C(=O)O)cc2S(=O)(=O)C1` (racemic) [Example 16, (Z)-3-((3-butyl-7-(ethylthio)-5-(4-fluorophenyl)-1,1-dioxido-2,3,4,5-tetrahydro-1,5-benzothiazepin-8-yl)oxy)-2-fluoroacrylic acid] are 2.5 nM, 1380 nM, 1 ×10⁻⁶ cm/s and 3.6 ×10⁻⁶ cm/s.
The corresponding values for `CCCCC1CN(c2ccc(F)cc2)c2cc(SCC)c(O/C=C/C(=O)O)cc2S(=O)(=O)C1` (racemic) [Example 7, (E)-3-((3-Butyl-7-(ethylthio)-5-(4-fluorophenyl)-1,1-dioxido-2,3,4,5-tetrahydro-1,5-benzothiazepin-8-yl)oxy)acrylic acid] are 2.6 nM, over 10000 nM, 11.3 ×10⁻⁶ cm/s and 8.9 ×10⁻⁶ cm/s.
As for `CCCCC1CN(c2ccccc2)c2cc(SCC)c(O/C=C(\F)C(=O)O)cc2S(=O)(=O)N1C` (single isomer, unassigned) [Example 25, (Z)-3-((3-butyl-7-(ethylthio)-2-methyl-1,1-dioxido-5-phenyl-2,3,4,5-tetrahydro-1,2,5-benzothiadiazepin-8-yl)oxy)-2-fluoroacrylic acid], in series [1], the IC50 stood at 0.9 nM. Also, the half-inhibitory concentration (IC50) in series [3] worked out at 431 nM. In addition, in series [2], the Papp A→B at 120 min, 10 µM amounted to 1.9 ×10⁻⁶ cm/s and the apparent permeability from basolateral to apical (Papp B→A) at 120 min, 10 µM turned out to be 3.9 ×10⁻⁶ cm/s.

The IC50 is the concentration that gives 50% inhibition. A word on the Papp A→B: it is how fast a substance crosses the layer from the apical side. Low values mean slow passage, high ones fast passage. One may read the Papp B→A as the apparent permeability from the basolateral to the apical side of a cell layer.
